The values below are quoted from earlier work in patent US20080108542A1, “Perfume Compositions” (priority 2005, published 2008).

For the data set the following is noted: 25° C.; data from literature or estimation software.
Turning to `COC1CC2CC1C1CC=CC21` (centres unmarked) [8-METHOXY-TRICYCLO[5.2.1.0{2,6}]DEC-3-ENE], the “SVP (saturated vapour pressure) class” value is recorded as “&& (SVPs greater than 125 micron Hg)”.
As to `CCC(C)(O)CCCC(C)C` (centres unmarked) [TETRAHYDROLINALOL], the “SVP (saturated vapour pressure) class” value is reported as “&& (SVPs greater than 125 micron Hg)”.
In the case of `CC1=CC(C)C(C=O)CC1` (centres unmarked) [2,4-DIMETHYL-3-CYCLOHEXENE-1-CARBOXALDEHYDE], the “SVP (saturated vapour pressure) class” value is recorded as “&& (SVPs greater than 125 micron Hg)”.
Turning to `CCCCC/C=C/CCC=O` [TRANS-4-DECENAL], the “SVP (saturated vapour pressure) class” value is reported as “&& (SVPs greater than 125 micron Hg)”.
On to `CC(C)CC1CCCC(C)(O)C1` (centres unmarked) [1-METHYL-3-(2-METHYLPROPYL)CYCLOHEXANOL], for which the “SVP (saturated vapour pressure) class” value is on record as “& (SVPs in the range of 25 to 125 micron Hg)”.
Regarding `CCCCCCCC1CCCO1` (centres unmarked) [2-N-HEPTYLTETRAHYDROFURAN], the “SVP (saturated vapour pressure) class” value was “&& (SVPs greater than 125 micron Hg)”.
For `CC/C=C/CC/C=C/C#N` [(2E,6E)-NONA-2,6-DIENENITRILE], the “SVP (saturated vapour pressure) class” value is reported as “& (SVPs in the range of 25 to 125 micron Hg)”.
With `CCCCCCCCCC(C)C=O` (centres unmarked) [2-METHYLUNDECANAL], the “SVP (saturated vapour pressure) class” value is reported as “& (SVPs in the range of 25 to 125 micron Hg)”.
On to `CC(=O)OC1CCC(C(C)(C)C)CC1` (centres unmarked) [PARA TERT.BUTYL CYCLOHEXYL ACETATE], for which the “SVP (saturated vapour pressure) class” value was “& (SVPs in the range of 25 to 125 micron Hg)”.
For `CC1=CCC(C(C)(C)O)CC1` (stereo not drawn) [ALPHA-TERPINEOL], the “SVP (saturated vapour pressure) class” value is reported as “& (SVPs in the range of 25 to 125 micron Hg)”.
Regarding `CCCCC1OC(C)CC(C)(C)O1` (centres unmarked) [2-BUTYL-4,4,6-TRIMETHYL-1,3-DIOXAN], the “SVP (saturated vapour pressure) class” value is reported as “&& (SVPs greater than 125 micron Hg)”.
`CCCCCCC1CCCC1=O` (centres unmarked) [2-HEXYL-CYCLOPENTANONE]: the “SVP (saturated vapour pressure) class” value is on record as “& (SVPs in the range of 25 to 125 micron Hg)”.
Turning to `CCOC(=O)C1=C(C)C=CCC1(C)C` [ETHYL 2,6,6-TRIMETHYLCYCLOHEXA-1,3-DIENE-1-CARBOXYLATE], the “SVP (saturated vapour pressure) class” value is given as “& (SVPs in the range of 25 to 125 micron Hg)”.
Turning to `C=CCOC(=O)COCC(C)CC` (centres unmarked) [2-METHYLBUTYLOXYACETIC ACID, 2-PROPENYL ESTER], the “SVP (saturated vapour pressure) class” value is “& (SVPs in the range of 25 to 125 micron Hg)”.
